Measured values published in ChEMBL document CHEMBL5620401, “Design, synthesis, and biological evaluation of novel spirocyclic compounds as potential anti-glioblastoma agents” (Eur J Med Chem, 2023).

Experiments:
U-87 MG [1] = assay: Antiproliferative activity against human U87 cells assessed as cell viability measured after 72 hrs by MTT assay; type: functional, cell-based, U-87MG ATCC
U-251 [2] = assay: Antiproliferative activity against human U-251 cells assessed as cell viability measured after 72 hrs by MTT assay; type: functional, cell-based; settings: U-251, 72 h
[3] = Permeability coefficient of compound by lipid-PAMPA assay; type: ADME
U-251 [4] = assay: Antiproliferative activity against human U-251 cells assessed as inhibition rate at 20 uM measured after 72 hrs by MTT assay relative to control; type: functional
U-87 MG [5] = assay: Antiproliferative activity against human U87 cells assessed as inhibition rate at 20 uM measured after 72 hrs by MTT assay relative to control; type: functional, U-87MG ATCC

| Structure (SMILES) | IC50 (U-87 MG [1]) | IC50 (U-251 [2]) | Peff [3] | inhibition at 20 µM (U-251 [4]) | inhibition at 20 µM (U-87 MG [5]) | Papp ([3]; read-out: Peff) |
| --- | --- | --- | --- | --- | --- | --- |
| COc1cc(C(=O)/C=C/c2ccc(C(=O)N3CCN(Cc4ccccc4)C34COC4)o2)cc(OC)c1OC | 14.9 µM | 7.6 µM | – | – | – | – |
| COc1cc(/C=C/C(=O)c2ccc(C(=O)N3CCN(Cc4ccccc4)C34COC4)cc2)cc(OC)c1OC | 3.7 µM | 2.2 µM | – | – | – | – |
| N#Cc1ccc(C(=O)/C=C/c2ccc(C(=O)N3CCN(Cc4ccccc4)C34COC4)cc2)cc1 | 6.3 µM | 5.4 µM | – | – | – | – |
| Cn1nnc2c(C(N)=O)ncn2c1=O [TEMOZOLOMIDE] | > 50 µM | > 50 µM | 0.002 10^-6 cm/s | – | – | – |
| COc1cc(C(=O)/C=C/c2ccc(C(=O)N3CCN(Cc4ccccc4)C34COC4)s2)cc(OC)c1OC | 4 µM | 2.1 µM | – | – | – | – |
| O=C(CCl)N1CCN(Cc2ccccc2)C12COC2 | 11.5 µM | 8.6 µM | – | 87.7% | 90.1% | 234 nm/s |
| COc1ccc(C(=O)/C=C/c2ccccc2C(=O)N2CCN(Cc3ccccc3)C23COC3)cc1OC | > 10 µM | > 10 µM | – | – | – | – |
| COc1ccc(C(=O)/C=C/c2cccc(C(=O)N3CCN(Cc4ccccc4)C34COC4)c2)cc1 | 2.6 µM | 2 µM | – | – | – | – |
| COc1ccc(C(=O)/C=C/c2cccc(C(=O)N3CCN(Cc4ccccc4)C34COC4)c2)cc1OC | 4.4 µM | 1.6 µM | – | – | – | – |
